Source: patent US6835726B2, “Pyrimidine derivatives” (priority 1998, dated 2004)
Where two headings read alike, the source gives them in different places.

Experiments:
[1] = tested on: recombinant human cytomegalovirus (HCMV); assay: microbe, parasite or virus in culture; type: cell-based
Description: Certain preferred compounds and compositions are capable of specifically inhibiting or suppressing cytomegalovirus infection. For the assessment of activity against human CMV, a method was used which is similar to that described in Kohler, et al., J. Virol. 68:6589-6597 (1994). Briefly, a recombinant human cytomegalovirus (HCMV) was made containing a marker gene (luciferase) under the control of the promoter for the late 28 kDa viral structural phosphoprotein pp28. Human foreskin fibroblast (HFF) cells were infected with the recombinant HCMV virus (MOI 5), placed into 96-well plates, and cultured under standard cell-culture conditions. Compounds that were evaluated for anti-HCMV activity were added to the infected cells 1 hour later. The level of luciferase expression was measured 24 hours after treatment with the test compounds. […] As an additional control, the cytotoxicity of test compounds on untreated HFF cells was also evaluated in cultured cell growth experiments.

[2] = CMV assay, Table 2, read-out: Antiviral Activity
[3] = CMV assay, Table 4, read-out: Antiviral Activity
[4] = CMV assay, Table 3, read-out: Antiviral Activity

Row | Structure (SMILES) | IC50 [1, 2] [nM] | IC50 [1, 3] [nM] | other results
1 | CCC(Nc1nc(C)c([N+](=O)[O-])c(-n2ccnc2C)n1)c1ccccc1 (centres unmarked) | 100 to 500 | – | –
2 | CCc1nccn1-c1nc(NCc2c(F)cccc2Cl)nc(C)c1[N+](=O)[O-] | 100 to 500 | – | –
3 | Cc1nc(NCc2c(F)cccc2Cl)nc(-n2ccnc2C)c1[N+](=O)[O-] | 100 to 500 | – | –
4 | CCc1nccn1-c1nc(NCc2ccc(F)cc2Cl)nc(C)c1[N+](=O)[O-] | 100 to 500 | – | –
5 | Cc1nc(NCc2ccc(F)cc2C(F)(F)F)nc(-n2ccnc2C)c1[N+](=O)[O-] | 100 to 500 | – | –
6 | CCc1nccn1-c1nc(NCc2ccc(F)cc2C(F)(F)F)nc(C)c1[N+](=O)[O-] | 100 to 500 | – | –
7 | Cc1nc(NCc2ccc(F)cc2Cl)nc(-n2ccnc2C)c1[N+](=O)[O-] | 100 to 500 | – | –
8 | Cc1nc(NCc2cc(Cl)cc(Cl)c2)nc(-n2ccnc2C)c1[N+](=O)[O-] | 100 to 500 | – | –
9 | Cc1nc(NCc2ccc(F)c(C(F)(F)F)c2)nc(-n2ccnc2C)c1[N+](=O)[O-] | < 100 | – | –
10 | Cc1nc(NCc2cc(F)cc(F)c2)nc(-n2ccnc2C)c1[N+](=O)[O-] | < 100 | – | –
11 | Cc1nc(NCc2ccccc2OC(F)(F)F)nc(-n2ccnc2C)c1[N+](=O)[O-] | 100 to 500 | – | –
12 | Cc1nc(NCc2cc(F)cc(F)c2)nc(-n2ccnc2)c1[N+](=O)[O-] | > 500 | – | –
13 | Cc1nc(NCc2ccc(F)cc2)nc(-n2ccnc2C)c1[N+](=O)[O-] | 100 to 500 | – | –
14 | Cc1nc(NCc2ccc(Cl)c(Cl)c2)nc(-n2ccnc2C)c1[N+](=O)[O-] | 100 to 500 | – | –
15 | Cc1nc(NCc2cccc(Cl)c2)nc(-n2ccnc2C)c1[N+](=O)[O-] | < 100 | – | –
16 | Cc1nc(NCc2ccc(Cl)cc2)nc(-n2ccnc2C)c1[N+](=O)[O-] | 100 to 500 | – | –
17 | Cc1nc(NCc2cccc(C(F)(F)F)c2)nc(-n2ccnc2C)c1[N+](=O)[O-] | < 100 | – | –
18 | Cc1ccc(CNc2nc(C)c([N+](=O)[O-])c(-n3ccnc3C)n2)cc1 | > 500 | – | –
19 | Cc1nc(NCc2ccccc2Cl)nc(-n2ccnc2C)c1[N+](=O)[O-] | < 100 | – | –
20 | Cc1nc(NCc2cc(C(F)(F)F)cc(C(F)(F)F)c2)nc(-n2ccnc2C)c1[N+](=O)[O-] | > 500 | – | –
21 | Cc1nc(NCc2cc(Cl)ccc2Cl)nc(-n2ccnc2C)c1[N+](=O)[O-] | < 100 | – | –

Row | Structure (SMILES) | IC50 [1, 2] [nM] | IC50 [1, 3] [nM] | other results
22 | Cc1nc(NCc2cccc(Cl)c2Cl)nc(-n2ccnc2C)c1[N+](=O)[O-] | 100 to 500 | – | –
23 | Cc1cccc(CNc2nc(C)c([N+](=O)[O-])c(-n3ccnc3C)n2)c1 | 100 to 500 | – | –
24 | Cc1nc(NCc2cccc(Br)c2)nc(-n2ccnc2C)c1[N+](=O)[O-] | < 100 | – | –
25 | Cc1nc(NCc2cccc(F)c2)nc(-n2ccnc2C)c1[N+](=O)[O-] | 100 to 500 | – | –
26 | COc1cccc(CNc2nc(C)c([N+](=O)[O-])c(-n3ccnc3C)n2)c1 | 100 to 500 | – | –
27 | Cc1nc(NCc2cccnc2)nc(-n2ccnc2C)c1[N+](=O)[O-] | > 500 | – | –
28 | Cc1nc(NCc2ccccn2)nc(-n2ccnc2C)c1[N+](=O)[O-] | 100 to 500 | – | –
29 | COc1ccc(CNc2nc(C)c([N+](=O)[O-])c(-n3ccnc3C)n2)cc1OC | 100 to 500 | – | –
30 | Cc1nc(NCc2cc(F)c(F)c(F)c2)nc(-n2ccnc2C)c1[N+](=O)[O-] | 100 to 500 | – | –
31 | Cc1nc(NCc2c(F)ccc(F)c2F)nc(-n2ccnc2C)c1[N+](=O)[O-] | 100 to 500 | – | –
32 | Cc1nc(NCc2cc(F)cc(F)c2F)nc(-n2ccnc2C)c1[N+](=O)[O-] | 100 to 500 | – | –
33 | Cc1nc(NCc2ccc(F)c(F)c2F)nc(-n2ccnc2C)c1[N+](=O)[O-] | 100 to 500 | – | –
34 | Cc1nc(NCc2ccc(F)c(F)c2)nc(-n2ccnc2C)c1[N+](=O)[O-] | 100 to 500 | – | –
35 | Cc1nc(NCc2cc(C(F)(F)F)ccc2F)nc(-n2ccnc2C)c1[N+](=O)[O-] | < 100 | – | –
36 | Cc1cccc(Cl)c1CNc1nc(C)c([N+](=O)[O-])c(-n2ccnc2C)n1 | 100 to 500 | – | –
37 | Cc1ccccc1CNc1nc(C)c([N+](=O)[O-])c(-n2ccnc2)n1 | > 500 | – | –
38 | Cc1ccccc1CNc1nc(C)c([N+](=O)[O-])c(-n2ccnc2C)n1 | 100 to 500 | – | –
39 | Cc1nc(NCc2cc(F)ccc2F)nc(-n2ccnc2C)c1[N+](=O)[O-] | 100 to 500 | – | –
40 | Cc1nc(NC2CCc3ccccc32)nc(-n2ccnc2C)c1[N+](=O)[O-] (centres unmarked) | – | < 100 | –
41 | Cc1nc(NC2CCCc3ccccc32)nc(-n2ccnc2C)c1[N+](=O)[O-] (centres unmarked) | – | 100 to 500 | –
42 | Cc1nc(N(C)C2CCc3ccccc32)nc(-n2ccnc2C)c1[N+](=O)[O-] (centres unmarked) | – | 100 to 500 | –

Row | Structure (SMILES) | IC50 [1, 2] [nM] | IC50 [1, 3] [nM] | other results
43 | Cc1nc(NC2CCc3c(Cl)cccc32)nc(-n2ccnc2C)c1[N+](=O)[O-] (centres unmarked) | – | > 500 | –
44 | Cc1nc(NC2COc3ccccc32)nc(-n2ccnc2C)c1[N+](=O)[O-] (centres unmarked) | – | 100 to 500 | –
45 | Cc1nc(NC2CCc3cc(F)c(F)cc32)nc(-n2ccnc2)c1[N+](=O)[O-] (centres unmarked) | – | 100 to 500 | –
46 | CCc1nccn1-c1nc(NC2CCc3cc(F)c(F)cc32)nc(C)c1[N+](=O)[O-] (centres unmarked) | – | 100 to 500 | –
47 | Cc1nc(NC2CCc3cc(F)c(F)cc32)nc(-n2ccnc2C)c1[N+](=O)[O-] (centres unmarked) | – | 100 to 500 | –
48 | CCc1nccn1-c1nc(NC2Cc3ccccc3C2)nc(C)c1[N+](=O)[O-] | – | > 500 | –
49 | Cc1nc(NC2CCc3c(F)ccc(F)c32)nc(-n2ccnc2)c1[N+](=O)[O-] (centres unmarked) | – | 100 to 500 | –
50 | Cc1nc(NC2CCc3c(F)ccc(F)c32)nc(-n2ccnc2C)c1[N+](=O)[O-] (centres unmarked) | – | < 100 | –
51 | CCc1nccn1-c1nc(NC2CCc3c(F)ccc(F)c32)nc(C)c1[N+](=O)[O-] (centres unmarked) | – | < 100 | –
52 | Cc1nc(NC2CCc3c(F)cccc32)nc(-n2ccnc2)c1[N+](=O)[O-] (centres unmarked) | – | 100 to 500 | –
53 | Cc1nc(NC2CCc3c(F)cccc32)nc(-n2ccnc2C)c1[N+](=O)[O-] (centres unmarked) | – | 100 to 500 | –
54 | CCc1nccn1-c1nc(NC2CCc3c(F)cccc32)nc(C)c1[N+](=O)[O-] (centres unmarked) | – | 100 to 500 | –
55 | Cc1nc(NC2CCc3cc(Br)ccc32)nc(-n2ccnc2C)c1[N+](=O)[O-] (centres unmarked) | – | 100 to 500 | –
56 | Cc1nc(NC2CCc3ccccc32)nc(-n2ccnc2)c1[N+](=O)[O-] (centres unmarked) | – | < 100 | –
57 | Cc1nc(NC2CCc3ccc(Cl)cc32)nc(-n2ccnc2C)c1[N+](=O)[O-] (centres unmarked) | – | 100 to 500 | –
58 | Cc1nc(NC2CCc3cc(F)ccc32)nc(-n2ccnc2)c1[N+](=O)[O-] (centres unmarked) | – | < 100 | –
59 | Cc1nc(NC2CCc3cc(F)ccc32)nc(-n2ccnc2C)c1[N+](=O)[O-] (centres unmarked) | – | 100 to 500 | –
60 | COC1c2ccccc2CC1Nc1nc(C)c([N+](=O)[O-])c(-n2ccnc2)n1 (centres unmarked) | – | > 500 | –
61 | COC1c2ccccc2CC1Nc1nc(C)c([N+](=O)[O-])c(-n2ccnc2C)n1 (centres unmarked) | – | > 500 | –
62 | CCc1nccn1-c1nc(NC2CCc3ccccc32)nc(C)c1[N+](=O)[O-] (centres unmarked) | – | 100 to 500 | –
63 | Cc1nc(NC2Cc3ccccc3C2(C)C)nc(-n2ccnc2)c1[N+](=O)[O-] (centres unmarked) | – | > 500 | –

Row | Structure (SMILES) | IC50 [1, 2] [nM] | IC50 [1, 3] [nM] | other results
64 | Cc1nc(NC2Cc3ccccc3C2(C)C)nc(-n2ccnc2C)c1[N+](=O)[O-] (centres unmarked) | – | 100 to 500 | –
65 | Cc1nc(NC2Cc3ccccc3C2)nc(-n2ccnc2C)c1[N+](=O)[O-].Cl | – | – | melting point: 184 to 185 °C
66 | CC[C@H]1CCCC[C@H]1Nc1nc(C)c([N+](=O)[O-])c(-n2ccnc2)n1 (relative stereo) | – | – | melting point: 123 to 124 °C
67 | Cc1nc(NC2Cc3ccccc3C2)nc(-n2ccnc2C)c1[N+](=O)[O-] [2-(2-indanamino)-4-(2-methylimidazol-1-yl)-6-methyl-5-nitropyrimidine] | – | – | melting point: 203 to 204 °C
68 | Cc1nc(NC2Cc3ccccc3C2)nc(-n2ccnc2)c1[N+](=O)[O-] [2-(2-indanamino)-4-imidazol-1-yl-6-methyl-5-nitropyriridine] | – | – | melting point: 177 to 178 °C
69 | CCc1nccn1-c1nc(NC2CCc3c(F)cc(F)cc32)nc(C)c1[N+](=O)[O-] (centres unmarked) [2-(4,6-difluoro-1-indanamino)-4-(2-ethylimidazol-1-yl)-6-methyl-5-nitropyrimidine] | – | – | melting point: 88 to 89 °C
70 | Cc1nc(NC2CCc3c(F)cc(F)cc32)nc(-n2ccnc2C)c1[N+](=O)[O-] (centres unmarked) [2-(4,6-difluoro-1-indanamino)-4-(2-methylimidazol-1-yl)-6-methyl-5-nitropyrimidine] | – | – | melting point: 164 to 165 °C
71 | Cc1nc(NC2CCc3c(F)cc(F)cc32)nc(-n2ccnc2)c1[N+](=O)[O-] (centres unmarked) [2-(4,6-difluoro-1-indanamino)-4-(imidazol-1-yl)-6-methyl-5-nitropyrimidine] | – | – | melting point: 175 to 176 °C
72 | Cc1nc(OCCC(C)(C)C)nc(-n2ccnc2)c1[N+](=O)[O-] [3,3-dimethyl-1-butyl/H/Me] | – | – | IC50 [1, 4]: > 500 nM
73 | Cc1nc(OCCC(C)(C)C)nc(-n2ccnc2C)c1[N+](=O)[O-] [3,3-dimethyl-1-butyl/Me/Me] | – | – | IC50 [1, 4]: > 500 nM
74 | COC(C)CCOc1nc(C)c([N+](=O)[O-])c(-n2ccnc2)n1 (centres unmarked) [3-methoxy-1-butyl/H/Me] | – | – | IC50 [1, 4]: > 500 nM
75 | COC(C)CCOc1nc(C)c([N+](=O)[O-])c(-n2ccnc2C)n1 (centres unmarked) [3-methoxy-1-butyl/Me/Me] | – | – | IC50 [1, 4]: > 500 nM
76 | Cc1nc(OCc2ccccc2)nc(-n2ccnc2)c1[N+](=O)[O-] [benzyl/H/Me] | – | – | IC50 [1, 4]: > 500 nM
77 | CCOc1nc(C)c([N+](=O)[O-])c(-n2ccnc2C)n1 [ethyl/Me/Me] | – | – | IC50 [1, 4]: > 500 nM
78 | COc1nc(C)c([N+](=O)[O-])c(-n2ccnc2C)n1 [methyl/Me/Me] | – | – | IC50 [1, 4]: > 500 nM
79 | CCCCOc1nc(C)c([N+](=O)[O-])c(-n2ccnc2)n1 [n-butyl/H/Me] | – | – | IC50 [1, 4]: > 500 nM
80 | CCCCOc1nc(C)c([N+](=O)[O-])c(-n2ccnc2C)n1 [n-butyl/Me/Me] | – | – | IC50 [1, 4]: > 500 nM
81 | CCCOc1nc(C)c([N+](=O)[O-])c(-n2ccnc2)n1 [n-propyl/H/Me] | – | – | IC50 [1, 4]: > 500 nM
82 | Cc1nc(OCCc2ccccc2)nc(-n2ccnc2)c1[N+](=O)[O-] [phenethyl/H/Me] | – | – | IC50 [1, 4]: > 500 nM
83 | Cc1nc(N2CCN(Cc3ccccc3)CC2)nc(-n2ccnc2C)c1[N+](=O)[O-] [u, 2-(4-benzylpiperazin-1-yl)-4-(2-methylimidazol-1-yl)-6-methyl-5-nitropyrimidine] | – | – | IC50 ([1]; Human betaherpesvirus 5, HFF, 24 h): 100 nM
